Results as given in patent US9365522B2, “Pyrazole amide derivative” (AMGEN INC., priority 2015, dated 2016).

Molecular target: T1, human RORγ-LBD (Homo sapiens, UniProt P51449)
T1 construct: made in house; host or cells: E. coli (BL-21)
T1 sequence (P51449 262-518): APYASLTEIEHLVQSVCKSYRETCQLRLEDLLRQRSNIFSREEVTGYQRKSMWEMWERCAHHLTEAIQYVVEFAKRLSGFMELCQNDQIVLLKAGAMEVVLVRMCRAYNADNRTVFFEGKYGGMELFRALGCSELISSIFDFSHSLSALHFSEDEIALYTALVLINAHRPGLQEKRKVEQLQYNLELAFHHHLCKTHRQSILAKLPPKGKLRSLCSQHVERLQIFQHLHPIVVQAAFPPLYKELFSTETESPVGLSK
Assay: ROR gamma coactivator peptide recruitment Alphascreen assay (RORγ-LBD binding to GRIP1 coactivator peptide)
Format: biochemical
Details: 5 nM human RORγ-LBD, 30 nM 7-β-hydroxycholesterol, 50 nM biotinylated GRIP1 coactivator peptide, overnight incubation at room temperature; read-out: result (pIC50, RORγ coactivator peptide recruitment Alphascreen assay) (converted)
Outline: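 His/Flag-tagged human RORγ-LBD (aa 262-518, E. coli-expressed, 5 nM) with agonist 7-β-hydroxycholesterol (30 nM) and biotinylated GRIP1 LXXLL peptide (50 nM) in HEPES pH 7.4 buffer, 2.5% DMSO. Compound 1-in-2 dilutions; Alphascreen bead signal read after overnight incubation at room temperature; pIC50 calculated.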

SMILES	IC50 [nM]
Cc1cc(Cl)c(C(=O)CN(C(=O)c2cnn([C@H]3CC[C@](C)(C(=O)O)CC3)c2C(F)(F)F)[C@@H]2CCC23CCC3)c(Cl)c1 [Example 722, trans-4-(4-((2-(2,6-dichloro-4-methylphenyl)-2-oxoethyl)((1R)-spiro[3.3]hept-1-yl)carbamoyl)-5-(trifluoromethyl)-1H-pyrazol-1-yl)-1-methylcyclohexanecarboxylic acid]	9.55
Cc1cc(Cl)c(C(=O)CN(C[C@@H]2CC(C)(C)O2)C(=O)c2cnn([C@H]3CC[C@](C)(C(=O)O)CC3)c2C(F)(F)F)c(Cl)c1 [Example 723, trans-4-(4-((2-(2,6-dichloro-4-methylphenyl)-2-oxoethyl)(((2S)-4,4-dimethyl-2-oxetanyl)methyl)carbamoyl)-5-(trifluoromethyl)-1H-pyrazol-1-yl)-1-methylcyclohexanecarboxylic acid]	10
Cc1cc(Cl)c(C(=O)CN(C[C@H]2CC(C)(C)O2)C(=O)c2cnn([C@H]3CC[C@](C)(C(=O)O)CC3)c2C(F)(F)F)c(Cl)c1 [Example 724, trans-4-(4-((2-(2,6-dichloro-4-methylphenyl)-2-oxoethyl)(((2R)-4,4-dimethyl-2-oxetanyl)methyl)carbamoyl)-5-(trifluoromethyl)-1H-pyrazol-1-yl)-1-methylcyclohexanecarboxylic acid]	6.03
Cc1cc(Cl)c(C(=O)CN(C[C@@]2(C)CCCO2)C(=O)c2cnn([C@H]3CC[C@](C)(C(=O)O)CC3)c2C(F)(F)F)c(Cl)c1 [Example 725, trans-4-(4-((2-(2,6-dichloro-4-methylphenyl)-2-oxoethyl)(((2S)-2-methyltetrahydro-2-furanyl)methyl)carbamoyl)-5-(trifluoromethyl)-1H-pyrazol-1-yl)-1-methylcyclohexanecarboxylic acid]	4.47
Cc1cc(Cl)c(C(=O)CN(C[C@@]2(C)CCCO2)C(=O)c2cnn([C@H]3CC[C@](C)(C(=O)O)CC3)c2C(F)(F)F)c(Cl)c1 [Example 726, trans-4-(4-((2-(2,6-dichloro-4-methylphenyl)-2-oxoethyl)(((2R)-2-methyltetrahydro-2-furanyl)methyl)carbamoyl)-5-(trifluoromethyl)-1H-pyrazol-1-yl)-1-methylcyclohexanecarboxylic acid]	2.75
CC1(CN(CC(=O)c2c(Cl)cncc2Cl)C(=O)c2cnn([C@H]3CC[C@](C)(C(=O)O)CC3)c2C(F)(F)F)CCC1 [Example 730, trans-4-(4-((2-(3,5-dichloro-4-pyridinyl)-2-oxoethyl)((1-methylcyclobutyl)methyl)carbamoyl)-5-(trifluoromethyl)-1H-pyrazol-1-yl)-1-methylcyclohexanecarboxylic acid]	3.55

The next lines start with the values.

IC50 [nM]	SMILES
11.7	C[C@@]1(CN(CC(=O)c2c(Cl)cccc2Cl)C(=O)c2cnn([C@H]3CC[C@](C)(C(=O)O)CC3)c2C(F)(F)F)CCCO1 [Example 727, trans-4-(4-((2-(2,6-dichlorophenyl)-2-oxoethyl)(((2S)-2-methyltetrahydro-2-furanyl)methyl)carbamoyl)-5-(trifluoromethyl)-1H-pyrazol-1-yl)-1-methylcyclohexanecarboxylic acid]
4.79	C[C@]1(CN(CC(=O)c2c(Cl)cccc2Cl)C(=O)c2cnn([C@H]3CC[C@](C)(C(=O)O)CC3)c2C(F)(F)F)CCCO1 [Example 728, trans-4-(4-((2-(2,6-dichlorophenyl)-2-oxoethyl)(((2R)-2-methyltetrahydro-2-furanyl)methyl)carbamoyl)-5-(trifluoromethyl)-1H-pyrazol-1-yl)-1-methylcyclohexanecarboxylic acid]
2.4	C[C@]1(C(=O)O)CC[C@H](n2ncc(C(=O)N(CC(=O)c3c(Cl)cccc3Cl)CC3(C(F)(F)F)CC3)c2C(F)(F)F)CC1 [Example 729, (1r,4r)-4-(4-((2-(2,6-dichlorophenyl)-2-oxoethyl)((1-(trifluoromethyl)cyclopropyl)methyl)carbamoyl)-5-(trifluoromethyl)-1H-pyrazol-1-yl)-1-methylcyclohexanecarboxylic acid]
